“Also recorded” adds a separate entry of the source.
What was measured:
[1] = biological target: recombinant Schistosoma japonicum insulin-like peptide, C-terminal fragment T31-S130 (S. japonicum); test: BLI; Octet RED, 25 °C; biotinylated rSjILP (150 ng/μl) immobilised on streptavidin biosensors, exposed to rSjLD1 or rSjLD2 (7, 14, 28, 56, 112 ng/μl); kinetic buffer (1 mM phosphate, 15 mM NaCl, 0.1 mg/ml BSA, 0.002% Tween-20); association 1000 s, dissociation 1000 s; BSA as reference
[2] = tested on: adult S. japonicum; conditions: in vitro, ref [15], cited from earlier work
Source text: The life-cycle of schistosomes involves snail intermediate hosts and definitive mammalian hosts including humans, in whom schistosomes can survive for decades. Remarkably, the highly sophisticated relationship between schistosomes and their mammalian hosts seems to involve exploitation by these parasites of host endocrine and immune signals. By binding many ligands including hormones, growth factors, cytokines, receptor tyrosine kinases (RTKs), which are high-affinity cell surface receptors, can be activated to trigger different signalling cellular cascades for the regulation ...

[3] = tested on: Erk (p44/42 MAPK) in adult S. japonicum; test: Erk phosphorylation in adult worms, Western blot with anti-phospho-P44/42 MAPK (Erk1/2) antibody; assay type: cell-based
Source text: It had been shown previously that an anti-phospho-P44/42 MAPK (Erk1/2) antibody could recognize exclusively activated (phosphorylated) forms of this kinase in S. mansoni because of the high sequence homology in key phosphorylation sites between kinases from schistosomes and humans, and because phosphorylation at these sites is vital for enzyme activation. […] Worms from the different groups were then collected for SWAP extraction which was undertaken in the presence of HALT protease/phosphatase inhibitor cocktail (ThermoFisher, Waltham, USA). SDS-PAGE/Western blotting was carried out as described above using the Odyssey system. […] An anti-actin antibody (Sigma-Aldrich) (1:150) was used to assess protein-loading differences. OdysseyClassic 3.0 software was used for Western blot quantification.

[4] = tested on: S. japonicum IRs (SjIR1 and SjIR2); design: method as in PMID 25961574; conditions: ref [18]; cited from earlier work
[5] = ADP assay (ADP hydrolysis/consumption by proteins); assay type: biochemical; conditions: ADP assay kit, protein 0.13 mg/ml, 20 min incubation, ADP 0, 5, 15, 30 μM
Protocol: To measure the level of hydrolysis of ADP by the schistosome ILP, ADP assay kits (Sigma-Aldrich) were used to measure ADP levels of recombinant schistosome ILPs after their interaction with different concentrations of ADP. ADP levels in various proteins (0.13 mg/ml) were determined following their incubation for 20 min with different concentrations of ADP (0, 5, 15, 30 μM).

[6] = biological target: T1, recombinant ligand domain of S. japonicum insulin receptor 1 (S. japonicum, biotin (NHS-PEO4-biotin kit) where it was immobilised on streptavidin biosensors); test: BLI
T1 chain: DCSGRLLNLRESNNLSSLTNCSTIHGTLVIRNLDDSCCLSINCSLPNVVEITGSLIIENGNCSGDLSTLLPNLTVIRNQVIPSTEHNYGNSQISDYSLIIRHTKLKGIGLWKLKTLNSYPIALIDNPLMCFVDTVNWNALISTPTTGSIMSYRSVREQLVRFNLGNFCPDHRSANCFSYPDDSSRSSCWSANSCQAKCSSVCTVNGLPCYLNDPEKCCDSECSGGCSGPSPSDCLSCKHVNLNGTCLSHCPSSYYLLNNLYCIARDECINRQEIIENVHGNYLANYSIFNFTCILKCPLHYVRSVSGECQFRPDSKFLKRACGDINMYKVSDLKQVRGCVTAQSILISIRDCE

recombinant ligand domain of S. japonicum insulin receptor 2 (domain or fragment)
Kd [1]: 0.16 nM

recombinant ligand domain of S. japonicum insulin receptor 1 (domain or fragment)
Kd [1]: 0.226 nM

human insulin: human insulin (Sigma-Aldrich)
increase of glucose content of adult female S. japonicum ([2]; female worms): 2.9 fold
increase of glucose content of adult male S. japonicum ([2]; male worms): 1.7 fold
reduction of Erk band intensity compared with worms co-stimulated with rSjILP and insulin ([3]; human insulin only (1 μM), 30 min, t (6) = 31.39, P = 0.001, experiment performed twice): 58%
Erk phosphorylation (44 kDa band), result in words ([3]; rSjILP 1 μM and/or human insulin 1 μM, 30 min in DMEM, anti-phospho-P44/42 MAPK antibody (1:1,000), experiment performed twice): The Erk band was also detectable; also recorded: more phosphorylated Erk was observed in worms stimulated with human insulin compared with worms cultured without insulin
reduction of Erk band intensity in worms without human insulin and rSjILP, compared with insulin only ([3]; value is the intensity of untreated worms relative to human insulin only (1 μM), 30 min, t (6) = 4.353, P = 0.049): 30%
binding of human insulin to SjIR1 and SjIR2, in words [4]: bind strongly with both SjIR1 and SjIR2
ADP hydrolysis, result in words [5]: no ADP binding ability was observed

B1: recombinant Schistosoma japonicum insulin-like peptide, C-terminal fragment T31-S130 (domain or fragment)
chain: THSLPELQTDYTPINDYPIRMCGNEFLRHLKRVCAIRGIYTPLVRFKRSLEQYYDRILQRGKRFDDLCTLYTIYEPDQVVTKCCCIGCTRSYLEQFCNPS
modifications: biotin (NHS-PEO4-biotin kit) where it was immobilised on streptavidin biosensors
Kd [6]: 0.255 nM
